Patent publication US20060084704A1, “Methods and compositions for enhancing degradation of nuclear receptor transcription factors and uses thereof” (priority 2004, published 2006)

Key:
[1] = target: T1, mutant Q49 androgen receptor (Homo sapiens, UniProt P10275, INS80QQQQQQQQQQQQQQQQQQQQQQQQQQ); assay: Mutant androgen receptor inclusions in COS-1 cells transfected with GFPARQ49 (fluorescence microscopy); assay type: cell-based; conditions: COS-1 cells transfected with GFPARQ49, JC9 5 micromolar
T1 construct: GFP; expressed in transfected cells; host or cells: COS-1 (monkey kidney)
Experimental: Monkey kidney COS-1 cells were plated at a density of 3×10^4 cells per 0.5-milliliter volume onto alcohol-cleaned and sterilized cover slips placed in 35-millimeter suspension culture dishes containing Dulbecco's modified Eagle's (DME) medium containing 10% FBS. The cells were transfected with plasmids containing either the Q19 (plasmid GFPARQ19) or Q49 (plasmid GFPARQ49) mutant androgen receptor and green fluorescent protein (GFP) as a reporter. For each coverslip, 12.3 microliters SuperFect was added to 3.075 micrograms plasmid in 102.5 microliters DME medium (to give a 1:4 ratio of DNA to SuperFect reagent); the mixture was vortexed briefly, and the complex allowed to form over 15 minutes. Each mixture then received 897 microliters CD/DME and was mixed gently. The resulting 1-milliliter volumes were added to the dishes containing the coverslips (final plasmid concentration was 3.02 micrograms per dish). Cells were allowed to incubate with the transfection solution for 5 hours, then the medium was changed to fresh 1.5 milliliters CD/DME medium with either vehicle (DMSO) only added or JC9 (final concentration 5 micromolar). […] The coverslips were air-dried, mounted on slides with a glycerol-based mounting agent, and stored at 4 degrees Celsius if necessary prior to observation with fluorescence microscopy. […]

LNCaP tumor cells = assay: In vivo LNCaP xenograft tumor growth in nude mice; conditions: JC9 100 mg/kg/day ip three times per week, 7 weeks
Experimental: In related in vivo studies, LNCap human prostate tumor cells are xenografted by subcutaneous injection (2×10^6 per site) into nude mice. Mice are subsequently treated by intraperitoneal injection of either the vehicle solution alone as a control or the test compounds (JC9)) at a dose of 100 milligrams per kilogram body weight, three times a week for 7 weeks. Tumor volume is measured twice a week over the next 7 weeks. […] Such results can be taken as a strong indication that the suppression of AR activity and the resulting reduction of tumor growth induced by AR-degrading compounds such as JC15 or by JC9, may be translated into a practical use for treating or preventing diseases and disorders related to AR activity, such as prostate and other cancers.
Two million LNCaP tumor cells were inoculated, subcutaneously, into the left flank of nude mice. In the experimental animals, the nude mice were give an intraperitoneal (ip) injection of compound JC9 at 100 mg/kg/day three times per week or with vehicle control only. After 7 weeks of treatment the tumors were excised, weighed and compared. The tumor weight in ratio of vehicle control to JC9 was 0.694 g:0.172 g.

PPAR gamma = target: T2, PPAR gamma (Homo sapiens, UniProt P37231); assay: Western blot of LNCaP cell lysates, PPAR gamma; assay type: cell-based; conditions: 1 or 2 micromolar, 24 hours, presence or absence of DHT
T2 construct: endogenous in cells; host or cells: LNCaP
T2 sequence (P37231 1-505): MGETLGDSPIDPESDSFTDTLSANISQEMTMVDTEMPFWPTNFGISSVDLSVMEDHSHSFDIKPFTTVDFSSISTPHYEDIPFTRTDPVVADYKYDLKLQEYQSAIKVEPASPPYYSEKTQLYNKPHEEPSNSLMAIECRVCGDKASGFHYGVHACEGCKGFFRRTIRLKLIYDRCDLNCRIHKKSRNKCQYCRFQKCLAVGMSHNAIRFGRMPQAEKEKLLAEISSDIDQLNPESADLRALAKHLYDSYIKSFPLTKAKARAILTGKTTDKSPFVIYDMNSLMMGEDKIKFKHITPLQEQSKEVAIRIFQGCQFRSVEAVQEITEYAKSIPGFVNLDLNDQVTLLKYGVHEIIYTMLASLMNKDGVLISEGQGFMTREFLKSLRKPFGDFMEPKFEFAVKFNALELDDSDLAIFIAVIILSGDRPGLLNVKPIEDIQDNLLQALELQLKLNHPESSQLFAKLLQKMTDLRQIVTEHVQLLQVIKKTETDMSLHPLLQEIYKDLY
Experimental: (§1) Human prostate cancer LNCaP cells and T47D cells were plated at a density of 7×10^5 cells per 60 millimeter tissue culture dish in […] (RPMI) medium containing 10% FBS. The medium was changed to RPMI or DME medium containing 10% charcoal-stripped serum 24 hours later to deplete cellular androgens or estrogens. After another 24 hours, treatment with the test compounds began. The test dose of JC15 was 1 or 2 micromolar and the test does of JC9 was 1, 5 and 10 micromolar. LNCap cells also received dihydrotestosterone (DHT) (3 nanomolar). Control cells received a corresponding amount of the vehicle, dimethylsulfoxide (DMSO) (<0.04%) for an equivalent exposure time. Cells were incubated with JC15 for 24 or 48 hours, and were lysed in 250 microliters of 1×SDS/PAGE loading buffer. Approximately 40 micrograms of total cellular protein was loaded in each lane of a pre-cast gel (NuPAGE, Invitrogen). Protein separation and transfer were performed following the manufacturer's instructions.
(§2) For the prostate cell lysates, androgen receptor (AR) protein was visualized by incubating the resultant membranes with an anti-AR antibody (BD-PharMingen), followed by chemiluminescence detection (ECL Plus, Amersham). […] The resultant protein signals were quantified using densitometry and NIH ImageJ software.

ER beta = target: T3, ER beta (Homo sapiens, UniProt Q92731); assay: Western blot of LNCaP cell lysates, ER beta; assay type: cell-based; conditions: 1 or 2 micromolar, 24 hours, presence or absence of DHT
T3 construct: endogenous in cells; host or cells: LNCaP
Experimental: as §1, §2

T3 sequence (Q92731 whole entry): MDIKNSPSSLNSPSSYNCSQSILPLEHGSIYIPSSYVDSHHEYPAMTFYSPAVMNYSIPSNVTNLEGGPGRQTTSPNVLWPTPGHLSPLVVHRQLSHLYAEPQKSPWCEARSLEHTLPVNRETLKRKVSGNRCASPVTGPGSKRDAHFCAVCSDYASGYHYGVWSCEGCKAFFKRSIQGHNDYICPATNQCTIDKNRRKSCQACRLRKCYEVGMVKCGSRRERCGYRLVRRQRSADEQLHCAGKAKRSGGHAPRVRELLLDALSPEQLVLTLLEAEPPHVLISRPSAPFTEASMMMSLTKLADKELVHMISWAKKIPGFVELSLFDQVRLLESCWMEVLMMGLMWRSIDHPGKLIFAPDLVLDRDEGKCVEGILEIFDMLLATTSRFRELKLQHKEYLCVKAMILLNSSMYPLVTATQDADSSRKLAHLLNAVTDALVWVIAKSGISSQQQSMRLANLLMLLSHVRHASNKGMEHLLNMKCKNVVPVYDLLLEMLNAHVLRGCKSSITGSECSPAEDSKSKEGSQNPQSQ
T1 sequence (P10275 with tags, fused parts or gaps with the stated changes): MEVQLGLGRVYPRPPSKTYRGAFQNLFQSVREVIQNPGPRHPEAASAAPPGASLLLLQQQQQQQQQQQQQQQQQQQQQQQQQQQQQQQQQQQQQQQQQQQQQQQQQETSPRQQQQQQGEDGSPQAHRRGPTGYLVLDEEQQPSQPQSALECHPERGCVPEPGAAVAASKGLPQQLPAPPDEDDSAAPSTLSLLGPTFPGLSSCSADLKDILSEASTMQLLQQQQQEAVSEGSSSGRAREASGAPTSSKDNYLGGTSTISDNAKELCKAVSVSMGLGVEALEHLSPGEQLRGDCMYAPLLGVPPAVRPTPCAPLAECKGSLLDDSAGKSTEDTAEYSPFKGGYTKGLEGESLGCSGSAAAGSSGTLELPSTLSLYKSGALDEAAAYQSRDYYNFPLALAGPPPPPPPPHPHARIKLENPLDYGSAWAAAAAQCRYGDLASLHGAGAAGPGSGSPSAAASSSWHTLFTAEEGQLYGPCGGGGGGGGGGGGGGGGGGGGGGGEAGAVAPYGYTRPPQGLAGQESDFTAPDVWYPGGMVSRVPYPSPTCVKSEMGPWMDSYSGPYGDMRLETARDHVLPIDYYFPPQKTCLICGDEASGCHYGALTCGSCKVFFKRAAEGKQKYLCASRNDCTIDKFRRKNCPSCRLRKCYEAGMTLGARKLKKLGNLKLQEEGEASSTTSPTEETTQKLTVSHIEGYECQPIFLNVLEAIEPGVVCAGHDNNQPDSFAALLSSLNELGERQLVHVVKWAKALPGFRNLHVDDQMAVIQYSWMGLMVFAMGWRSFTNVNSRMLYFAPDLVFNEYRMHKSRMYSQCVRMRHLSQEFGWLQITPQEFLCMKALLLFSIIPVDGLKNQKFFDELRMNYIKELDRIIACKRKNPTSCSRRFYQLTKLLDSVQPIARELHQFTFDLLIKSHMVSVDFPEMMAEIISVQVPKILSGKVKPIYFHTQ

cellular concentration of PPAR gamma (PPAR gamma) | cellular concentration of ER beta (ER beta) | Compound | fluorescent inclusions or aggregates of mutant Q49 androgen receptor [1] | reduction in tumor size compared to vehicle control (LNCaP tumor cells) | tumor weight (LNCaP tumor cells)
– | – | COc1ccc(C=CC(=O)C=C(O)C=Cc2ccc(OC)c(OC)c2)cc1OC [JC9, 5-hydroxy-1,7-bis(3,4-dimethoxyphenyl)-1,4,6-heptatrien-3-one] | substantially smaller amounts of fluorescent inclusions | 75% | 0.172 g
did not substantially affect | did not substantially affect | CCOC(=O)CCC(C(=O)C=Cc1ccc(O)c(OC)c1)C(=O)C=Cc1ccc(O)c(OC)c1 (centres unmarked) [JC15, 7-(4-hydroxy-3-methoxyphenyl)-4-[3-(4-hydroxy-3-methoxyphenyl)acryloyl]-5-oxo-hept-6-enoic acid ethyl ester] | – | – | –
